Assay results taken from US20220016101A1 (ACADIA Pharmaceuticals Inc., priority 2018, published 2022).

Legend:
serotonin transporter = serotonin transporter (Homo sapiens, UniProt P31645); assay: Receptor profile: affinity (Ki) at SERT; assay type: binding; conditions: data on file
[1] = tested on: adults with Parkinson's disease and depression; assay: Adverse events, open-label study in Parkinson's disease and depression; assay type: in vivo, human; conditions: of the first 31 patients; most common falls, UTI, diarrhea, nausea
Excerpt: (§1) Subjects can receive treatment as either monotherapy or adjunctively if inadequately controlled with SSRI/SNRI monotherapy. A primary endpoint of the study is change from baseline to Week 8 in the Hamilton Depression Scale 17-item (HAMD-17) total score. Secondary endpoints include Clinical Global Impression (CGI) scales (improvement and severity), Scale of Outcomes in PD-Sleep (SCOPA), and quality of life as measured by EuroQol-5 dimensions-5 levels (EQ-5D-5L).
Adverse events were classified into standard terminology using the Medical Dictionary for Regulatory Activities (MedDRA). Treatment-emergent adverse events (TEAEs), TEAEs leading to discontinuation, TEAEs related to study drug, TEAEs by maximum severity, serious adverse events (SAEs), and SAEs related to study drug were summarized.

[2] = tested on: patients with MDD and an inadequate response to an SSRI or SNRI; assay: HAMD-17 anxiety/somatization subscale score, MDD study; assay type: in vivo, human; conditions: for HAMD-17 anxiety/somatization subscale score LSM (SE) Change from Baseline to Week 5: 34 mg QD + SSRI/SNRI
Procedure: Key endpoints were change from baseline to the end of each stage for the HAMD-17 total score and SDS score.
All patients continued on their SSRI or SNRI at a stable dose for the duration of the study.
Clinic visits occurred weekly from Weeks 1 through 10. The MADRS was administered at screening and baseline. The HAMD-17, SDS, CGI, and KSS were administered at baseline and weekly during the study. Other endpoints such as the SF-12 were administered at baseline and Weeks 5 and 10. Treatment response was defined as a reduction of 50% from baseline for the HAMD-17 total score, and remission was defined as a HAMD-17 total score
A higher HAMD-17 anxiety/somatization subscale score indicates more severe depression with anxiety symptoms.

dopamine transporter = dopamine transporter (Homo sapiens, UniProt Q01959); assay: Receptor profile: affinity (Ki) at DAT; assay type: binding; conditions: data on file
Sequence of dopamine transporter (Q01959 whole entry): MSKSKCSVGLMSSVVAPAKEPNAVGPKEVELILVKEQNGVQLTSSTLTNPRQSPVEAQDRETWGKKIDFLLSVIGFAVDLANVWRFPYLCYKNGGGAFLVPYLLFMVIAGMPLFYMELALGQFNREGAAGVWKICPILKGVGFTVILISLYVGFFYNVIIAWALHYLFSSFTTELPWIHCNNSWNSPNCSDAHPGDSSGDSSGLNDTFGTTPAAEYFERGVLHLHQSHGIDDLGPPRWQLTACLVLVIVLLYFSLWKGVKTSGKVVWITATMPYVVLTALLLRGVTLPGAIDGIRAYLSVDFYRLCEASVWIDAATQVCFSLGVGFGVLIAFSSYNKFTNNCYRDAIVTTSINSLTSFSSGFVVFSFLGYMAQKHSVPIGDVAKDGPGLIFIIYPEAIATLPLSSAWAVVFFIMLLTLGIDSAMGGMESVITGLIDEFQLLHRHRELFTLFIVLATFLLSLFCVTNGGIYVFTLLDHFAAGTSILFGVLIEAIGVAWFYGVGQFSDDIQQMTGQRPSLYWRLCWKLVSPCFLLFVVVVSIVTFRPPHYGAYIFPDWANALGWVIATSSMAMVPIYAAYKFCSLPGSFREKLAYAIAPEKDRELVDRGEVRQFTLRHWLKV

[3] = tested on: patients with MDD and an inadequate response to an SSRI or SNRI; conditions: in vivo
[4] = biological target: norepinephrine transporter (Homo sapiens, UniProt P23975); assay: Receptor profile: affinity (Ki) at NET; assay type: binding; conditions: data on file
Sequence of norepinephrine transporter (P23975 whole entry, species assumed): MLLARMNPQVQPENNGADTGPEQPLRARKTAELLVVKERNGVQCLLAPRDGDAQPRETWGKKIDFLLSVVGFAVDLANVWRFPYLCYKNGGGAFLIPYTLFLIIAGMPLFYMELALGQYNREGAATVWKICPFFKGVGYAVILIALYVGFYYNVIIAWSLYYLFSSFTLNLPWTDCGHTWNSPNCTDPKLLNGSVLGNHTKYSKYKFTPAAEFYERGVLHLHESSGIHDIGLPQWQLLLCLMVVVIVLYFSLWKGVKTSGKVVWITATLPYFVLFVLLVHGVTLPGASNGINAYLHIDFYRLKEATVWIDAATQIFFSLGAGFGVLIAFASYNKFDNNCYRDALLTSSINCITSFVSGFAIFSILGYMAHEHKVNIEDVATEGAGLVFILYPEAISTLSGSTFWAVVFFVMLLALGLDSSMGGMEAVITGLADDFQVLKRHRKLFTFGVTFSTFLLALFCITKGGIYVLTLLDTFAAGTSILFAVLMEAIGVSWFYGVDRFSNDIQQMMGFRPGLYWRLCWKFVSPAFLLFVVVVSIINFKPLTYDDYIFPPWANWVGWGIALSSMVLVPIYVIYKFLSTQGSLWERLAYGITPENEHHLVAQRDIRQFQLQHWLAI

[5] = tested on: adults with Parkinson's disease and depression; assay: CGI-I, open-label study in Parkinson's disease and depression; assay type: in vivo, human; conditions: interim, first 31 patients
Excerpt: “Clinical Global Impression (CGI)” scale is a clinician-rated, 7-point scale that is designed to rate the severity of the subject's depression at the time of assessment using the Investigator's judgment and past experience with subjects who have the same disorder (i.e., depression with anxious distress). “Clinical Global Impression-Improvement (CGI-I)” is a clinician-rated, 7-point scale that is designed to rate the improvement in the subject's depression at the time of assessment, relative to the symptoms at Baseline. “Clinical Global Impression—Severity (CGI-S)” is an assessment of the current severity of the patient's disease.
as §1, with “A primary endpoint of the study is change from baseline to Week 8 in the Hamilton Depression Scale 17-item (HAMD-17) total score.” left out
(§2) At approximately 2, 4, and 6 weeks after start of dosing of study drug subjects returned to the clinic for assessments. Safety measures, HAMD-17, C-SSRS (Columbia Suicide Severity Rating Scale), CGI-S(Clinical Global Impression-Severity), and CGI-I (Clinical Global Impression-Improvement) were evaluated at all visits. […]

[6] = tested on: adults with Parkinson's disease and depression; assay: HAMD-17 total score, open-label study in Parkinson's disease and depression; assay type: in vivo, human; conditions: Week 8; interim, first 31 patients
Procedure: as §1
Subjects were assessed for eligibility and prohibited medications were discontinued. After all screening assessments were completed, eligible subjects returned to the clinic for Baseline evaluation. After Baseline assessments were completed, subjects were enrolled and received the first dose of pimavanserin. Study medication were provided to the subjects to take home with instructions to take the medication approximately the same time each day, and return all used containers and unused study drug as scheduled.
as §2
The HAMD-17 total score was analyzed using mixed model for repeated measures (MMRM). […]

[7] = Stage 1, subgroup baseline subscale score ≥7
[8] = Stage 2, subgroup baseline subscale score ≥7

Sequence of serotonin transporter (P31645 whole entry): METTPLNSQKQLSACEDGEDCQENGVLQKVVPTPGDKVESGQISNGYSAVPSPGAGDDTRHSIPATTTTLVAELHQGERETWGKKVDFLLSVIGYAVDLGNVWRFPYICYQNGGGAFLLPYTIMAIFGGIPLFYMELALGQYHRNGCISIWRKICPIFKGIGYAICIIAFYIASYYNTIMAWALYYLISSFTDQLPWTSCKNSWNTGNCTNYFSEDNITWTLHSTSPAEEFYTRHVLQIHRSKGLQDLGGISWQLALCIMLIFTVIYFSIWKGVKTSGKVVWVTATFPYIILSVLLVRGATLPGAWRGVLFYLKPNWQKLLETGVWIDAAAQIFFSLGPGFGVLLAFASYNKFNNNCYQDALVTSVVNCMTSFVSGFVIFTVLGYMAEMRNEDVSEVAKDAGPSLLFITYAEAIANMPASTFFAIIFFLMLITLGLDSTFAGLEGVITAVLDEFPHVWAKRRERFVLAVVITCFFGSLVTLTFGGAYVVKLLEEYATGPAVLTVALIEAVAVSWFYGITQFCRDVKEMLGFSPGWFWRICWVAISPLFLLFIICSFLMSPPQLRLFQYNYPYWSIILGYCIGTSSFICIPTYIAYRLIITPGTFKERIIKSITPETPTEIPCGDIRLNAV

Q: What does the source list for CC(C)COc1ccc(CNC(=O)N(Cc2ccc(F)cc2)C2CCN(C)CC2)cc1 [pimavanserin, N-(4-Fluorophenylmethyl)-N-(1-methylpiperidin-4-yl)-N′-(4-(2-methylpropyloxy)phenylmethyl)carbamide]?
A: Ki (serotonin transporter): > 1000 nM; patients reporting adverse events [1]: 13; HAMD-17 anxiety/somatization subscale score Diff in LSM (SE) vs placebo ([2]; Stage 1): −1.5 (0.41); HAMD-17 anxiety/somatization subscale score Effect Size (Cohen's d) ([2]; Stage 1): 0.634; HAMD-17 anxiety/somatization subscale score LSM (SE) Change from Baseline to Week 5 ([2]; Stage 1): −3.7 (0.36); HAMD-17 anxiety/somatization subscale score LSM (SE) Change from Baseline to Week 5 ([2]; Stage 1, subgroup baseline anxiety/somatization subscale score ≥7): −5.0 (0.56); HAMD-17 anxiety/somatization subscale score Diff in LSM (SE) vs placebo [2, 7]: −2.2 (0.66); HAMD-17 anxiety/somatization subscale score Effect Size (Cohen's d) [2, 7]: 0.781; HAMD-17 anxiety/somatization subscale score Diff in LSM (SE) vs placebo ([2]; Stage 2): 0.0 (0.48); HAMD-17 anxiety/somatization subscale score Effect Size (Cohen's d) ([2]; Stage 2): −0.007; HAMD-17 anxiety/somatization subscale score LSM (SE) Change from Baseline to Week 5 ([2]; Stage 2): −0.6 (0.33); HAMD-17 anxiety/somatization subscale score LSM (SE) Change from Baseline to Week 5 ([2]; Stage 2, subgroup baseline anxiety/somatization subscale score ≥7): −1.3 (0.44); HAMD-17 anxiety/somatization subscale score Diff in LSM (SE) vs placebo [2, 8]: 0.1 (0.66); HAMD-17 anxiety/somatization subscale score Effect Size (Cohen's d) [2, 8]: −0.067; Ki (dopamine transporter): > 1000 nM; deaths reported in the study [3]: no deaths; Ki [4]: > 1000 nM; patients with a CGI-I score of 1 or 2 (very much improved or much improved) [5]: 54.8%; patients reaching remission (HAMD-17≤7) [6]: 35.5%; patients with ≥50% improvement in the HAMD-17 [6]: 45.2%
